Reference: the kinase profiling compilation of Christmann-Franck et al. (2016)

Key:
Test in all cases: radiometric filter-binding kinase assay, Kinase HotSpot
Conditions in all cases: compound 0.5 µM; ATP 10 µM
ADRBK2 (human) = ADRBK2 (human) (UniProt P35626)
CAMK2A (human) = CAMK2A (human) (UniProt Q9UQM7)
CAMK2G (human) = CAMK2G (human) (UniProt Q13555)
CAMK4 (human) = CAMK4 (human) (UniProt Q16566)
CDC42BPB (human) = CDC42BPB (human) (UniProt Q9Y5S2)
CSNK1G2 (human) = CSNK1G2 (human) (UniProt P78368)
DYRK3 (human) = DYRK3 (human) (UniProt O43781)
EPHA2 (human) = EPHA2 (human) (UniProt P29317)
EPHA3 (human) = EPHA3 (human) (UniProt P29320)
EPHA8 (human) = EPHA8 (human) (UniProt P29322)
FGFR1 (human) = FGFR1 (human) (UniProt P11362)
FYN (human) = FYN (human) (UniProt P06241)
HCK (human) = HCK (human) (UniProt P08631)
IKBKE (human) = IKBKE (human) (UniProt Q14164)
INSR (human) = INSR (human) (UniProt P06213)
MAP4K5 (human) = MAP4K5 (human) (UniProt Q9Y4K4)
MAPK9 (human) = MAPK9 (human) (UniProt P45984)
MARK1 (human) = MARK1 (human) (UniProt Q9P0L2)
MATK (human) = MATK (human) (UniProt P42679)
MET (human) = MET (human) (UniProt P08581)
MST4 (human) = MST4 (human) (UniProt Q9P289)
MUSK (human) = MUSK (human) (UniProt O15146)
NEK1 (human) = NEK1 (human) (UniProt Q96PY6)
NEK6 (human) = NEK6 (human) (UniProt Q9HC98)
NEK7 (human) = NEK7 (human) (UniProt Q8TDX7)
NTRK3 (human) = NTRK3 (human) (UniProt Q16288)
NUAK2 (human) = NUAK2 (human) (UniProt Q9H093)
OXSR1 (human) = OXSR1 (human) (UniProt O95747)
PAK2 (human) = PAK2 (human) (UniProt Q13177)
PIM1 (human) = PIM1 (human) (UniProt P11309)
PRKCB1 (human) = PRKCB1 (human) (UniProt P05771)
PRKG2 (human) = PRKG2 (human) (UniProt Q13237)
PRKX (human) = PRKX (human) (UniProt P51817)
PTK2 (human) = PTK2 (human) (UniProt Q05397)
PTK6 (human) = PTK6 (human) (UniProt Q13882)
RIPK2 (human) = RIPK2 (human) (UniProt O43353)
RPS6KA6 KD1 KD2 (human) = RPS6KA6 KD1 KD2 (human) (UniProt Q9UK32)
SLK (human) = SLK (human) (UniProt Q9H2G2)
SRPK3 (human) = SRPK3 (human) (UniProt Q9UPE1)
STK24 (human) = STK24 (human) (UniProt Q9Y6E0)
TGFBR2 (human) = TGFBR2 (human) (UniProt P37173)
TTK (human) = TTK (human) (UniProt P33981)

CAMK2A (human), sequence (Q9UQM7 whole entry, looked up): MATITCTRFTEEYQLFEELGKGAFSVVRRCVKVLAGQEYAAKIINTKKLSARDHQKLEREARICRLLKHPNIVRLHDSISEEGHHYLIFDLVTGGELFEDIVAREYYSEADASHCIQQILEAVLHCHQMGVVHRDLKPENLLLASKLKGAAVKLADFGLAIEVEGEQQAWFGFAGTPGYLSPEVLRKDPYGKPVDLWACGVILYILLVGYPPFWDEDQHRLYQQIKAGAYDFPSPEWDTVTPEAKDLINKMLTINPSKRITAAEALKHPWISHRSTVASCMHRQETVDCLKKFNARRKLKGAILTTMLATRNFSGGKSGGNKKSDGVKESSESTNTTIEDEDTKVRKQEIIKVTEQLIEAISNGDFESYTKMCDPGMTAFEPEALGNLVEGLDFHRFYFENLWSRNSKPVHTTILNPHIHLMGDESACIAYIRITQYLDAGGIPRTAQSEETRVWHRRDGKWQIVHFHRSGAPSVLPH
IKBKE (human), sequence (Q14164 whole entry, looked up): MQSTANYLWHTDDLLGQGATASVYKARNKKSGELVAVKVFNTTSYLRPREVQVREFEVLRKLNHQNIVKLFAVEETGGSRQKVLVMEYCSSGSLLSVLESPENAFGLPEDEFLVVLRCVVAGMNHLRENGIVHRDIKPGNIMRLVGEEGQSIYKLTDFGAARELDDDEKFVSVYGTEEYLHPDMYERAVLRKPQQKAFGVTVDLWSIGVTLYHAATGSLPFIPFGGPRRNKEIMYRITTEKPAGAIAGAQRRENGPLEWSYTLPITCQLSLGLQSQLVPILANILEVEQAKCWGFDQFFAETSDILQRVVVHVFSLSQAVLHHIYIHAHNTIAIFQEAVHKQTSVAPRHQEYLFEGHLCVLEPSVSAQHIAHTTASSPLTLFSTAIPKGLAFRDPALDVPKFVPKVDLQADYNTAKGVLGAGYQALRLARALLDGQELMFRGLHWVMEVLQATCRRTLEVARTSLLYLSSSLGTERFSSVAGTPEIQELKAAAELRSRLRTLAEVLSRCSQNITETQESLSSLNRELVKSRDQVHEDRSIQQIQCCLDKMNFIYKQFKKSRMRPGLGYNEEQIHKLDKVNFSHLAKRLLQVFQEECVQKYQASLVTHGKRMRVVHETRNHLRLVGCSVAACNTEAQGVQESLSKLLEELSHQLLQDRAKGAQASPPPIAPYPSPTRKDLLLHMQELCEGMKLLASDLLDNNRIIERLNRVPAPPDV
OXSR1 (human), sequence (O95747 whole entry, looked up): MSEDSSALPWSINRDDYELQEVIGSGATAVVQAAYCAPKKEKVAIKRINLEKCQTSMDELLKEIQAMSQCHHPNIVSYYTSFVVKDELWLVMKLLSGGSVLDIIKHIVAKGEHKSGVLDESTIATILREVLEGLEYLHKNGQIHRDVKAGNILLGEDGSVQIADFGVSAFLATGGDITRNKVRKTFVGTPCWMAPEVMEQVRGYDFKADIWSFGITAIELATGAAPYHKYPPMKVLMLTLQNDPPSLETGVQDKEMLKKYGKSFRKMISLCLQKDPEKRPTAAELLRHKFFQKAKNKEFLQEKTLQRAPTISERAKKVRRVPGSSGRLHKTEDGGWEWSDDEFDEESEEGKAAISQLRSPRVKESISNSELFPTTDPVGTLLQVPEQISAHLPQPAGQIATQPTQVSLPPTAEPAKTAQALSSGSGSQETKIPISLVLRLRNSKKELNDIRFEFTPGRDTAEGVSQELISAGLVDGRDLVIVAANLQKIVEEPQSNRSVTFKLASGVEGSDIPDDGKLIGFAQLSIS
PRKG2 (human), sequence (Q13237 whole entry, looked up): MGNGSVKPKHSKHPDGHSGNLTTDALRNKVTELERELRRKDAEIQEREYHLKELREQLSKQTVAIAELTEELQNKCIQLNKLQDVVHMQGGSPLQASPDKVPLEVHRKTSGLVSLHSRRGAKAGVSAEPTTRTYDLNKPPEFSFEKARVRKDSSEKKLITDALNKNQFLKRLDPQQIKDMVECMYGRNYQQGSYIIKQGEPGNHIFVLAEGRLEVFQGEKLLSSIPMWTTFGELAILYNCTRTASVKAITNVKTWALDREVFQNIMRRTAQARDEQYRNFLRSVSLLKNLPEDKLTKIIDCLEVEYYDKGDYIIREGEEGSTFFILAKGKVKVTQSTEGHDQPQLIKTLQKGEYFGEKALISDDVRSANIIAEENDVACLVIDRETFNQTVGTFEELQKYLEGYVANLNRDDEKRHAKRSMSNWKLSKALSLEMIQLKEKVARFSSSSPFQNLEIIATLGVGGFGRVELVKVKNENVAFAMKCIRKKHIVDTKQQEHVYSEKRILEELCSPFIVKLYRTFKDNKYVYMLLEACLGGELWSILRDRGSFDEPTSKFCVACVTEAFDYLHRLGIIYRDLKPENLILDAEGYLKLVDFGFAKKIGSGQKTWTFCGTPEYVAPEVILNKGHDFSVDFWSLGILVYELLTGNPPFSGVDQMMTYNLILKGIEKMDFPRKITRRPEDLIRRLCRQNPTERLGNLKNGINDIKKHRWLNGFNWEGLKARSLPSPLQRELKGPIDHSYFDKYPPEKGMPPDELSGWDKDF
PIM1 (human), sequence (P11309 whole entry, looked up): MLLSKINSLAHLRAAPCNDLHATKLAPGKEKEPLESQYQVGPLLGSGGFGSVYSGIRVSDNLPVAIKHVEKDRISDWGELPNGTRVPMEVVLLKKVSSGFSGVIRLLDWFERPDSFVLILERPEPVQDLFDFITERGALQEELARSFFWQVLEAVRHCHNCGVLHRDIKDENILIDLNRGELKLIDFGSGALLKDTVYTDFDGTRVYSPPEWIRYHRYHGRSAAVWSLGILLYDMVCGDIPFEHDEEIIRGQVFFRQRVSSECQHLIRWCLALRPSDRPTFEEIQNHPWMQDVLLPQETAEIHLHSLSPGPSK
MAPK9 (human), sequence (P45984 whole entry, looked up): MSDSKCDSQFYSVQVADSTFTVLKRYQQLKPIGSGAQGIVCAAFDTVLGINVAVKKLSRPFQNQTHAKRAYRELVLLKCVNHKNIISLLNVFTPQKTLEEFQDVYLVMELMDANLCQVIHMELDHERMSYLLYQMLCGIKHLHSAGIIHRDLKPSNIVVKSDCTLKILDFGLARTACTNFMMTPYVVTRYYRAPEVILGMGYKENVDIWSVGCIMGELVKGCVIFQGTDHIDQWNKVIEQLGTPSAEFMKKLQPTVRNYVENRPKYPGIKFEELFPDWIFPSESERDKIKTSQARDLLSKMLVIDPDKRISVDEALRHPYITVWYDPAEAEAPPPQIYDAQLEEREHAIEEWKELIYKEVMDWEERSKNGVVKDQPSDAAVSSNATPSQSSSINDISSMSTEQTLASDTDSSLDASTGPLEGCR
CDC42BPB (human), sequence (Q9Y5S2 whole entry, looked up): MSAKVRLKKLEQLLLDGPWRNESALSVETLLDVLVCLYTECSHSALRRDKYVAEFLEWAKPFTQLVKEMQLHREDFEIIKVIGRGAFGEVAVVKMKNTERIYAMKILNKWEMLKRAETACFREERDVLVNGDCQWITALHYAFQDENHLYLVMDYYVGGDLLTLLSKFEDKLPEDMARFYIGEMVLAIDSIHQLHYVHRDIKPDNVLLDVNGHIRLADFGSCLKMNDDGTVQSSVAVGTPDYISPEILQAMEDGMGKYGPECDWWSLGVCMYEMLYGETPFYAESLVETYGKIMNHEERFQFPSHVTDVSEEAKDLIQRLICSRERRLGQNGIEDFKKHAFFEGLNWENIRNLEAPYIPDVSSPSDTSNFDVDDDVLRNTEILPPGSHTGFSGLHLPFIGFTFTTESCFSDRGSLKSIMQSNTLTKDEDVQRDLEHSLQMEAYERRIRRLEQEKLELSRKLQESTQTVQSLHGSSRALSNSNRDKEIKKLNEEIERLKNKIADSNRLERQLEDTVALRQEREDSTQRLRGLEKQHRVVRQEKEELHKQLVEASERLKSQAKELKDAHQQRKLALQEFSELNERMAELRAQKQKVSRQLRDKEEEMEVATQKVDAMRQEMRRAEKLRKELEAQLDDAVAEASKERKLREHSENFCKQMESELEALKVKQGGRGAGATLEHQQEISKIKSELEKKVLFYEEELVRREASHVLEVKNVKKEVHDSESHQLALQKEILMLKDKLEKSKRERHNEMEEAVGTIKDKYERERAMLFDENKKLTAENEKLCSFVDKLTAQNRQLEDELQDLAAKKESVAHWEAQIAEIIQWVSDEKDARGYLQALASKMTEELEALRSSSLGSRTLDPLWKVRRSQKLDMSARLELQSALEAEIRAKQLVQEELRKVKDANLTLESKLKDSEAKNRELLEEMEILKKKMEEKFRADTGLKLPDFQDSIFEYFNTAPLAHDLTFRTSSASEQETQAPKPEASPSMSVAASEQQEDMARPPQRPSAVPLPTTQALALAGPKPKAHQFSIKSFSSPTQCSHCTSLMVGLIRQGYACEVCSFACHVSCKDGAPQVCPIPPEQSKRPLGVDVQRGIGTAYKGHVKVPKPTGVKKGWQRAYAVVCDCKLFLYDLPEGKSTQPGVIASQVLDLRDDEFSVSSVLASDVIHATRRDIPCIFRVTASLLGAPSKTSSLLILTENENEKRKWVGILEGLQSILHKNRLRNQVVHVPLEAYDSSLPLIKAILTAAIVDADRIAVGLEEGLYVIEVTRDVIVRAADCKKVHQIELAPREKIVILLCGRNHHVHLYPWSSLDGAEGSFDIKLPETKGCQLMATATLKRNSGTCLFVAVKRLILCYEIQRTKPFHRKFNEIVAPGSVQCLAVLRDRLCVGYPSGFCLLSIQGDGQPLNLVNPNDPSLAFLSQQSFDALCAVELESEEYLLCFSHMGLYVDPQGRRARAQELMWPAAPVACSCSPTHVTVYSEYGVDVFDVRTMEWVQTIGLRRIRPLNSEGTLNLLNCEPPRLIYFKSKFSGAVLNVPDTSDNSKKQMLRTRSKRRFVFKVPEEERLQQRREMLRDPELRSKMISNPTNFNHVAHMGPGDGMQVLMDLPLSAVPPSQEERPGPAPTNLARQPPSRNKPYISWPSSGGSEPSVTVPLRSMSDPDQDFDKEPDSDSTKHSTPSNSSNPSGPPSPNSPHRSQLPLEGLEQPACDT

SMILES: CNc1cc2c(Nc3cccc(Br)c3)ncnc2cn1
- residual activity (ADRBK2 (human)): 101%
- residual activity (CAMK2A (human)): 105%
- residual activity (CAMK2G (human)): 105%
- residual activity (CAMK4 (human)): 104%
- residual activity (CDC42BPB (human)): 107%
- residual activity (CSNK1G2 (human)): 95.8%
- residual activity (DYRK3 (human)): 84.4%
- residual activity (EPHA2 (human)): 95.3%
- residual activity (EPHA3 (human)): 96.1%
- residual activity (EPHA8 (human)): 87.9%
- residual activity (FGFR1 (human)): 96.5%
- residual activity (FYN (human)): 91.7%
- residual activity (HCK (human)): 84.5%
- residual activity (IKBKE (human)): 87.1%
- residual activity (INSR (human)): 100%
- residual activity (MAP4K5 (human)): 77.1%
- residual activity (MAPK9 (human)): 96.5%
- residual activity (MARK1 (human)): 96.1%
- residual activity (MATK (human)): 88%
- residual activity (MET (human)): 106%
- residual activity (MST4 (human)): 109%
- residual activity (MUSK (human)): 81.3%
- residual activity (NEK1 (human)): 70.3%
- residual activity (NEK6 (human)): 89.8%
- residual activity (NEK7 (human)): 90.4%
- residual activity (NTRK3 (human)): 72.7%
- residual activity (NUAK2 (human)): 85%
- residual activity (OXSR1 (human)): 88.3%
- residual activity (PAK2 (human)): 92.7%
- residual activity (PIM1 (human)): 66.2%
- residual activity (PRKCB1 (human)): 95.3%
- residual activity (PRKG2 (human)): 102%
- residual activity (PRKX (human)): 97.1%
- residual activity (PTK2 (human)): 90.2%
- residual activity (PTK6 (human)): 54.4%
- residual activity (RIPK2 (human)): 69.2%
- residual activity (RPS6KA6 KD1 KD2 (human)): 81.8%
- residual activity (SLK (human)): 63%
- residual activity (SRPK3 (human)): 97.1%
- residual activity (STK24 (human)): 101%
- residual activity (TGFBR2 (human)): 105%
- residual activity (TTK (human)): 100%

SMILES: O=C(Nc1cccc(Nc2nccc(Nc3cccc(C(F)(F)F)c3)n2)c1)C1CC1
- residual activity (ADRBK2 (human)): 93.1%
- residual activity (CAMK2A (human)): 98%
- residual activity (CAMK2G (human)): 108%
- residual activity (CAMK4 (human)): 97.9%
- residual activity (CDC42BPB (human)): 96.6%
- residual activity (CSNK1G2 (human)): 101%
- residual activity (DYRK3 (human)): 101%
- residual activity (EPHA2 (human)): 87.3%
- residual activity (EPHA3 (human)): 105%
- residual activity (EPHA8 (human)): 96.3%
- residual activity (FGFR1 (human)): 99.6%
- residual activity (FYN (human)): 54.1%
- residual activity (HCK (human)): 102%
- residual activity (IKBKE (human)): 97.5%
- residual activity (INSR (human)): 89.8%
- residual activity (MAP4K5 (human)): 94.9%
- residual activity (MAPK9 (human)): 98.7%
- residual activity (MARK1 (human)): 104%
- residual activity (MATK (human)): 101%
- residual activity (MET (human)): 87.7%
- residual activity (MST4 (human)): 84.4%
- residual activity (MUSK (human)): 101%
- residual activity (NEK1 (human)): 82.8%
- residual activity (NEK6 (human)): 103%
- residual activity (NEK7 (human)): 116%
- residual activity (NTRK3 (human)): 77.3%
- residual activity (NUAK2 (human)): 94.3%
- residual activity (OXSR1 (human)): 78.9%
- residual activity (PAK2 (human)): 105%
- residual activity (PIM1 (human)): 103%
- residual activity (PRKCB1 (human)): 94.7%
- residual activity (PRKG2 (human)): 96.2%
- residual activity (PRKX (human)): 94.6%
- residual activity (PTK2 (human)): 89.1%
- residual activity (PTK6 (human)): 72.3%
- residual activity (RIPK2 (human)): 81.6%
- residual activity (RPS6KA6 KD1 KD2 (human)): 89.5%
- residual activity (SLK (human)): 92.9%
- residual activity (SRPK3 (human)): 101%
- residual activity (STK24 (human)): 98.3%
- residual activity (TGFBR2 (human)): 91.6%
- residual activity (TTK (human)): 92.1%

SMILES: CC(C)N(CCC(=O)c1ccc2ccccc2c1)Cc1ccccc1
- residual activity (ADRBK2 (human)): 88.9%
- residual activity (CAMK2A (human)): 106%
- residual activity (CAMK2G (human)): 97.7%
- residual activity (CAMK4 (human)): 98.3%
- residual activity (CDC42BPB (human)): 95%
- residual activity (CSNK1G2 (human)): 104%
- residual activity (DYRK3 (human)): 107%
- residual activity (EPHA3 (human)): 85%
- residual activity (EPHA8 (human)): 95.9%
- residual activity (FGFR1 (human)): 99.5%
- residual activity (FYN (human)): 95.3%
- residual activity (HCK (human)): 94.9%
- residual activity (IKBKE (human)): 93%
- residual activity (INSR (human)): 107%
- residual activity (MAP4K5 (human)): 90.2%
- residual activity (MAPK9 (human)): 100%
- residual activity (MARK1 (human)): 97.7%
- residual activity (MATK (human)): 80.7%
- residual activity (MET (human)): 110%
- residual activity (MST4 (human)): 108%
- residual activity (MUSK (human)): 112%
- residual activity (NEK1 (human)): 81.9%
- residual activity (NEK6 (human)): 109%
- residual activity (NEK7 (human)): 95.2%
- residual activity (NTRK3 (human)): 103%
- residual activity (NUAK2 (human)): 85.4%
- residual activity (OXSR1 (human)): 106%
- residual activity (PAK2 (human)): 107%
- residual activity (PIM1 (human)): 100%
- residual activity (PRKCB1 (human)): 92.6%
- residual activity (PRKG2 (human)): 139%
- residual activity (PRKX (human)): 99.6%
- residual activity (PTK2 (human)): 96.3%
- residual activity (PTK6 (human)): 96.4%
- residual activity (RIPK2 (human)): 78.3%
- residual activity (RPS6KA6 KD1 KD2 (human)): 97.4%
- residual activity (SLK (human)): 101%
- residual activity (SRPK3 (human)): 96.5%
- residual activity (STK24 (human)): 96.6%
- residual activity (TGFBR2 (human)): 98.8%
- residual activity (TTK (human)): 96%
